Among the data in patent US11173207B2 (priority 2016, dated 2021) are cytokine profile values, retold here.

The experiment deals with Splenocytes. Also noted: species or system CD-1 mice. The following applies: mouse, in vivo.

For QS21, the cytokine profile entry is “strong and balanced Th1 plus Th2 cytokine profile”.
